In US20170073337A1, “DIHYDROTHIAZINE AND DIHYDROOXAZINE DERIVATIVES HAVING BACE1 INHIBITORY ACTIVITY” (Shionogi & Co., Ltd., priority 2014, published 2017):
In brackets after ≈: the same amount, converted by molar mass. Like-named read-outs stand apart in the source and are kept apart here.

Tests used:
[1] = molecular target: T1, human ether-a-go-go related gene (hERG) channel (Homo sapiens, UniProt Q12809); assay: hERG test; type: cell-based; conditions: % inhibition of IKr tail peak current at 3 uM; CHO cells expressing hERG
T1 construct: expressed in transfected cells; host or cells: CHO cells
T1 sequence (Q12809 whole entry): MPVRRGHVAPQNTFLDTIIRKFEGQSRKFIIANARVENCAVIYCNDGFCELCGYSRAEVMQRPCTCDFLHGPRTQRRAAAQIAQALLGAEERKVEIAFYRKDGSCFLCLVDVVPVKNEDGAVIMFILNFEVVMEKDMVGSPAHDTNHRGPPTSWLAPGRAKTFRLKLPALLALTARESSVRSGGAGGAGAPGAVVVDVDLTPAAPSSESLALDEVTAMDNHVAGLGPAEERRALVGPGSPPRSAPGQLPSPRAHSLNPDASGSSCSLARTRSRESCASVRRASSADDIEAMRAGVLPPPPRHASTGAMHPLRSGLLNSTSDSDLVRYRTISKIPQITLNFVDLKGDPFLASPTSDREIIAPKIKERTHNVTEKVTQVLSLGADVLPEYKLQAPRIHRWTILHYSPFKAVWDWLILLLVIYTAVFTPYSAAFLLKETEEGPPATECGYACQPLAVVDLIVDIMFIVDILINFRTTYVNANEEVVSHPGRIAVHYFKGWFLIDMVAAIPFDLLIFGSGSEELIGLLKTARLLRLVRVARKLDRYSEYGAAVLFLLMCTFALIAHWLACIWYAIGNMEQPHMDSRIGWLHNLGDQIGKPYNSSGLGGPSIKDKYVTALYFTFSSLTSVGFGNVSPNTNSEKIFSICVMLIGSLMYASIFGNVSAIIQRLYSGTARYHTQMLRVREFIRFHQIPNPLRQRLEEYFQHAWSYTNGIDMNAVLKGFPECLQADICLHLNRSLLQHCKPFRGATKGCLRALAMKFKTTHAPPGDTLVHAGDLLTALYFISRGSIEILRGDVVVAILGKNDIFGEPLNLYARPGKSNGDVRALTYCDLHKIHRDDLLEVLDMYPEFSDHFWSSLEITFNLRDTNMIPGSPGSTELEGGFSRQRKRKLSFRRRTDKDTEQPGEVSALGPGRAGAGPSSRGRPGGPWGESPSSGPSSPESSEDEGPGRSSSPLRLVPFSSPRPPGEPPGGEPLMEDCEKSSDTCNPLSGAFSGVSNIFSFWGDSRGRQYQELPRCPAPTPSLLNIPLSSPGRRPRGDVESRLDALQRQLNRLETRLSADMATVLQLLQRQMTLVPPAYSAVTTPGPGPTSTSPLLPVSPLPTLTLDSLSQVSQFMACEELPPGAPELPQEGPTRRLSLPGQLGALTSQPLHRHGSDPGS
How it was run: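 IKr was recorded from hERG-expressing CHO cells by automated whole-cell patch clamp at a holding potential of −80 mV. A −50 mV leak step was followed by a 2 s depolarization to +20 mV and a 2 s repolarization to −50 mV, when current was measured.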

[2] = molecular target: T2, CYP1A2 (Homo sapiens, UniProt P05177); assay: CYP inhibition test (CYP1A2); type: in vitro ADME; conditions: pooled human liver microsomes; 7-ethoxyresorufin O-deethylation
T2 construct: The commercially available pooled human liver microsomes are used as an enzyme resource; from tissue; host or cells: pooled human liver microsomes
T2 sequence (P05177 1-516): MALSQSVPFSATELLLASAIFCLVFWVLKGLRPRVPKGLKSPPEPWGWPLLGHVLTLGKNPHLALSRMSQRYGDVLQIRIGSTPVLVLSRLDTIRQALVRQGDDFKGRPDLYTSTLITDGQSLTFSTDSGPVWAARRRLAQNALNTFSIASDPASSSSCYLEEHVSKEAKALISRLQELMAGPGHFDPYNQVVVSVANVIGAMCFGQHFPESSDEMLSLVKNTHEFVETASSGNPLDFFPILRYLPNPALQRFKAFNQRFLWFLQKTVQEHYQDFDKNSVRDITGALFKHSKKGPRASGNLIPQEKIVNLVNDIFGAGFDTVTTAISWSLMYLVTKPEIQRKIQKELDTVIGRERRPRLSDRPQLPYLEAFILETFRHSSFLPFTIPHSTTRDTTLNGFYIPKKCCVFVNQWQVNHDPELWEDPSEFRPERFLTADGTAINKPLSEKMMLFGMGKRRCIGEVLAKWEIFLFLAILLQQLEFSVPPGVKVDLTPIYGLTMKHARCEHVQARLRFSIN
How it was run: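 Inhibition of CYP1A2 was measured in commercially available pooled human liver microsomes (0.2 mg protein/mL) using 7-ethoxyresorufin O-deethylation with 0.5 μmol/L ethoxyresorufin. Test compound at 1, 5, 10, 20 μmol/L in […] Hepes buffer was incubated at 37° C. after NADPH addition; methanol/acetonitrile=1/1 (v/v) stopped the reaction, and resorufin was read fluorescently.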

[3] = molecular target: T3, CYP3A4 (Homo sapiens, UniProt P08684); assay: CYP inhibition test (CYP3A4); type: in vitro ADME; conditions: pooled human liver microsomes; terfenadine hydroxylation
T3 construct: The commercially available pooled human liver microsomes are used as an enzyme resource; from tissue; host or cells: pooled human liver microsomes
T3 sequence (P08684 whole entry): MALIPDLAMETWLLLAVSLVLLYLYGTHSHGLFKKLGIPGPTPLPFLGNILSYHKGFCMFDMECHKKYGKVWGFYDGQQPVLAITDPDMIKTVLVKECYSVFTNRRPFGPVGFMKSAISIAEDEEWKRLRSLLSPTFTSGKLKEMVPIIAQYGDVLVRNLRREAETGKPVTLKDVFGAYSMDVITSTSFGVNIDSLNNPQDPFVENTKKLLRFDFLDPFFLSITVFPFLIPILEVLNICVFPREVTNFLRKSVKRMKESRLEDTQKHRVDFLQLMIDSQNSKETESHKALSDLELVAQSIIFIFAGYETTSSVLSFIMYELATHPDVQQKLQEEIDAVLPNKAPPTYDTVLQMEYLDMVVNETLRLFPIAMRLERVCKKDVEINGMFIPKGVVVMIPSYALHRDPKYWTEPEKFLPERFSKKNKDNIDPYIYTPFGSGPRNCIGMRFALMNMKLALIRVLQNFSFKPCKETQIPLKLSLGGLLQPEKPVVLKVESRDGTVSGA
How it was run: (§1)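 Pooled human liver microsomes (0.2 mg protein/mL) with compound at 1, 5, 10 and 20 μmol/L and NADPH, at 37 °C. Marker substrates: dextromethorphan 5 μmol/L (2D6), terfenadine 1 μmol/L (3A4), S-mephenytoin 50 μmol/L (2C19), tolbutamide 100 μmol/L (2C9). Metabolites were measured by LC/MS/MS, and IC50 was derived by logistic fit of remaining activity against the DMSO control.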

[4] = Solubility test; type: physicochemical; conditions: for solubility kinetic at 1 h: kinetic from dmso stock; for solubility kinetic at 16 h: solubility in JP 2nd fluid B, 1% DMSO, *2: shaken for 1 hour at room temperature
How it was run: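 Dissolved concentration determined by LC/MS or SPE/MS (absolute calibration) in diluted filtrates, after 2 μL of 10 mmol/L DMSO stock was added to 198 μL JP 1st or JP 2nd fluid and equilibrated either 1 h with shaking at room temperature or 16 h standing at 25 °C.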

[5] = Metabolic stability test; type: in vitro ADME; conditions: human liver microsomes, 37° C., 30 minutes, NADPH
How it was run: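 Parent compound was measured by LC/MS/MS or SPE/MS after a methanol/acetonitrile quench and reported as % remaining, with the 0 min sample set to 100%. Incubations ran 30 min at 37 °C in pH 7.4 Tris buffer containing pooled human liver microsomes at 0.5 mg protein/mL and 1 mmol/L NADPH.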

[6] = molecular target: T4, CYP2C19 (Homo sapiens, UniProt P33261); assay: CYP inhibition test (CYP2C19); type: in vitro ADME; conditions: pooled human liver microsomes; mephenytoin 4′-hydroxylation
T4 construct: The commercially available pooled human liver microsomes are used as an enzyme resource; from tissue; host or cells: pooled human liver microsomes
T4 sequence (P33261 whole entry): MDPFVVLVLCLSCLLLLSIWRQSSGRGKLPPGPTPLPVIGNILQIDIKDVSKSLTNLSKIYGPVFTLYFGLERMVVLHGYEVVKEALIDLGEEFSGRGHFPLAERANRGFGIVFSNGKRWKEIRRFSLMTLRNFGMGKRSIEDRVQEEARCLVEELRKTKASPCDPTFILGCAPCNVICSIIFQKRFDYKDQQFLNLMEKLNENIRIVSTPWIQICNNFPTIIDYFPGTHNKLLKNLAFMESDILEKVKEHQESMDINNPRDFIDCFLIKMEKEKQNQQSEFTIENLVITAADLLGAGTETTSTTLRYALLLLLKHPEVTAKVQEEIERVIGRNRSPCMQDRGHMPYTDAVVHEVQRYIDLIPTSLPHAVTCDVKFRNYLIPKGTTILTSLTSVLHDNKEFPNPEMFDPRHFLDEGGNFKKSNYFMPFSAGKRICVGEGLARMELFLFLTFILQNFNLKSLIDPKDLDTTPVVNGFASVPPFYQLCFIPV
How it was run: as §1

[7] = JP 1st fluid, pH 1.2, simulated gastric fluid, read-out: JP1
[8] = JP 2nd fluid A, pH 6.8, aqueous buffer, read-out: JP2_μM

SMILES | hERG_3 uM_% [1] | IC50 [2] | IC50 [3] | solubility kinetic at 1 h [4, 7] | solubility kinetic at 16 h ([4]; read-out: JP2_μM) | remaining % [5] | IC50 [6] | solubility kinetic at 1 h [4, 8] | solubility kinetic at 1 h ([4]; JP 2nd fluid B, pH 6.8, aqueous buffer, read-out: JP2_μM)
CC[C@H]1SC(N)=N[C@](C)(c2cc(NC(=O)c3cnc(OCF)cn3)ccc2F)[C@H]1F [Compound I-66] | 27.1% | ≥ 20 µM | ≥ 10 µM | > 50 µM | >50 µM | 67% | ≥ 20 µM | – | –
CC[C@H]1SC(N)=N[C@](C)(c2cc(NC(=O)c3ccc(F)cn3)ccc2F)[C@H]1F [Compound I-70] | 58.6% | ≥ 20 µM | ≥ 10 µM | > 50 µM | >50 µM | 74.3% | ≥ 20 µM | – | –
COc1cnc(C(=O)Nc2ccc(F)c([C@@]3(C)N=C(N)O[C@H]([C@@H](C)F)[C@@H]3F)c2)cn1 [Compound I-71] | 17% | ≥ 20 µM | ≥ 20 µM | > 50 µM | – | 63% | ≥ 20 µM | > 50 µM | –
C[C@]1(c2cc(NC(=O)c3ccc(C#N)cn3)ccc2F)N=C(N)O[C@H](C(F)(F)C2CC2)[C@@H]1F [Compound I-81] | 49.3% | ≥ 20 µM | ≥ 10 µM | > 50 µM | – | 101% | ≥ 20 µM | – | 19.3 µM (≈ 8.91 µg/mL)
COc1cnc(C(=O)Nc2ccc(F)c([C@@]3(C)N=C(N)O[C@H](C(F)F)[C@@H]3C)c2)cn1 [Compound I-86] | 23.8% | ≥ 20 µM | ≥ 20 µM | > 50 µM | – | 67.5% | ≥ 20 µM | > 50 µM | –
CO[C@H]1[C@@H](C)SC(N)=N[C@]1(C)c1cc(NC(=O)c2cnc(OCF)cn2)ccc1F [Compound I-87] | 13.8% | ≥ 20 µM | ≥ 20 µM | > 50 µM | >50 µM | 81% | ≥ 20 µM | – | –
CO[C@H]1[C@@H](C)SC(N)=N[C@]1(C)c1cc(NC(=O)c2ccc(C#N)cn2)ccc1F [Compound I-88] | 45.6% | ≥ 20 µM | ≥ 20 µM | > 50 µM | >50 µM | 83.5% | ≥ 20 µM | – | –
CO[C@H]1[C@@H](C)SC(N)=N[C@]1(C)c1cc(NC(=O)c2ccc(F)cn2)ccc1F [Compound I-89] | 42.7% | ≥ 20 µM | ≥ 20 µM | > 50 µM | >50 µM | 86.7% | ≥ 20 µM | – | –
COc1cnc(C(=O)Nc2ccc(F)c([C@@]3(C)N=C(N)S[C@H](C)[C@@H]3OC)c2)cn1 [Compound I-90] | 11.4% | ≥ 20 µM | ≥ 20 µM | > 50 µM | >50 µM | 83.1% | ≥ 20 µM | – | –
COC[C@H]1SC(N)=N[C@](C)(c2cc(NC(=O)c3cnc(OCF)cn3)ccc2F)[C@H]1F [Compound I-91] | 11.3% | ≥ 20 µM | ≥ 20 µM | > 50 µM | >50 µM | 74.4% | ≥ 20 µM | – | –
COc1ccc(C(=O)Nc2ccc(F)c([C@@]3(C)N=C(N)S[C@H](C)[C@@H]3F)c2)nn1 [Compound I-108] | 39.5% | ≥ 20 µM | ≥ 20 µM | > 50 µM | >50 µM | 92.1% | ≥ 20 µM | – | –
